# Test results published in article PMC12348470, “Amino Acid Substitutions in Bacteriocin Lactolisterin BU Reveal Functional Domains Involved in Biological Activity Against Staphylococcus aureus” (Molecules, 2025).
# Like-named read-outs stand apart in the source and are kept apart here. Ends that are not written are not given here.
# Columns and labels:
# S. aureus ATCC 25923 [1] = assay: Spot-on-the-lawn antimicrobial screening; format: cell-based, Staphylococcus aureus; details: 5 µL spots at 1000, 500, 250, 125 and 62.5 µg/mL on LB soft agar lawn; overnight, 37 °C
# Protocol: The antimicrobial activity screening assay of twelve chemically synthesized peptides was evaluated using a spot-on-the-lawn assay against S. aureus ATCC 25923.
# S. aureus ATCC 25923 was grown overnight in LB broth, adjusted to 0.5 McFarland (~1 × 10^8 CFU/mL), and mixed 1:100 into molten soft agar (0.7% agar in LB). Five milliliters of this suspension was overlaid onto LB agar plates and allowed to solidify.
# Peptide stock solutions (1 mg/mL) were serially diluted in sterile water, and 5 µL of each dilution was carefully spotted onto the surface of the inoculated agar. The plates were dried under a laminar flow hood for 15–20 min and incubated overnight at 37 °C. Zones were observed, and their size and clarity were compared.
# S. aureus ATCC 25923 [2] = format: cell-based, Staphylococcus aureus
# icaR = assay: Virulence gene expression, RT-qPCR; format: cell-based, S. aureus ATCC 25923; details: half MIC, 16–18 h, 37 °C, normalised to gmk, duplicate
# Protocol: (§1) Untreated bacterial cultures in corresponding media served as controls.
# (§2) All experiments were performed in duplicate.
# lukSPV = assay: Virulence gene expression, RT-qPCR; format: cell-based, S. aureus ATCC 25923; details: half MIC, 16–18 h, 37 °C, normalised to gmk, duplicate
# Protocol: as §1, §2
# hla = details: half MIC, 16–18 h, 37 °C, normalised to gmk, duplicate
Sequence,"zones of inhibition, spot-on-the-lawn assay (S. aureus ATCC 25923 [1])",MBC (S. aureus ATCC 25923 [2]) [µg/mL],"icaR expression, log2 fold-change vs untreated control (icaR; FBS) [log2 fold change]","icaR expression, log2 fold-change vs untreated control (icaR; LB medium) [log2 fold change]","lukSPV expression, log2 fold-change vs untreated control (lukSPV; FBS) [log2 fold change]","lukSPV expression, log2 fold-change vs untreated control (lukSPV; LB medium) [log2 fold change]","hla expression, log2 fold-change vs untreated control (hla; FBS) [log2 fold change]","hla expression, log2 fold-change vs untreated control (hla; LB medium) [log2 fold change]"
MWGRILATVAKYGPKAVSWAWQHKWELINMGDLAFRYIQRIWG [Peptide G7A],comparable to the wild-type LBU peptide,25,1.71,0.10,1.22,-2.88,0.51,-0.62
MWARILGTVAKYGPKAVSWAWQHKWELINMGDLAFRYIQRIWG [Peptide G3A],comparable to the wild-type LBU peptide,25,-1.43,0.06,-1.54,1.77,-0.30,0.60
MWGRILGTVAKYAPKAVSWAWQHKWELINMGDLAFRYIQRIWG [Peptide G13A],comparable to the wild-type LBU peptide,12.5,2.66,0.36,2.49,-2.28,1.04,-0.11
